Experimental data published in patent publication US5583158A, “Prostaglandin E1 analogues” (Taisho Pharmaceutical Co., Ltd., priority 1992, dated 1996).
pIC50: −log10 of the molar value.

system: rabbit platelet aggregation; experiment: Test for inhibition of rabbit platelet aggregation (ADP-induced, platelet-rich plasma, method of Born); format: cell-based, rabbit (New Zealand White-strain); conditions: Oryctolagus cuniculus, ADP final concentration 5 μM, 37° C., 3 minutes preincubation, maximum aggregation within 5 minutes
Experimental: Test Example [Test for inhibition of rabbit platelet aggregation]
New Zealand White-strain rabbits (groups of four rabbits each weighing 2.5-4.0 to kg) were tested. Blood was collected from the common carotid artery of the rabbits under on ether anesthesic, and mixed with 3.2to % sodium citrate in volume ratio of 9:1. The blood was centrifuged at 1,100 rpm for 15 minutes to give a platelet-rich plasma (PRP) as a supernatant.
Blood platelet aggregation was determined according to the method of Born [Nature, Vol. 194, p. 927 (1962)]. To 275 to μl of PRP was added 1 μl of a solution of various concentrations of a test compound dissolved in ethanol; the mixture was stirred at 1,000 rpm at 37° C. for 3 minutes; then, in this state, 25 μl of an aggregation-inducing agent [adenosine diphosphate (ADP), final concentration: 5 μM] was added thereto to induce platelet aggregation; and by using an aggregometer, there was determined the maximum aggregation rate (the maximum change in light transmission within 5 minutes from the induction of platelet aggregation).
The aggregatian inhibition rate of the test compound was calculated from the maximum aggregation rate in the presence test compound relative to the maximum aggregation rate when ethanol was used instead of the solution of the test compound; the IC50 value of the test compound was determined from the concentration response curve.

Compound | pIC50
CCCC[C@@H](C)C[C@H](O)C#C[C@H]1[C@H](O)CC(=O)[C@@H]1CCCCOCC(=O)OC [Compound 1, (17R)-17,20-Dimethyl-13,14-didehydro-3-oxa-PGE1 methyl ester] | 9.22
CCCC[C@@H](C)C[C@H](O)C#C[C@H]1[C@H](O)CC(=O)[C@@H]1CCCCOCC(=O)O [Compound 2, (17R)-17,20-Dimethyl-13,14-didehydro-3-oxa-PGE1] | 9.18
COC(=O)CSCCCC[C@H]1C(=O)C[C@@H](O)[C@@H]1C#C[C@@H](O)C[C@@H](C)CCC=C(C)C [Compound 3, (17S)-20-Isopropylidene-17-methyl-13, 14-didehydro-3-thia-PGE1 methyl ester] | 9.41
CC(C)=CCC[C@H](C)C[C@H](O)C#C[C@H]1[C@H](O)CC(=O)[C@@H]1CCCCSCC(=O)O [Compound 4, (17S)-20-Isopropylidene-17-methyl-13,14-didehydro-3-thia-PGE1] | 9.59
COC(=O)COCCCC[C@H]1C(=O)C[C@@H](O)[C@@H]1C#C[C@@H](O)C[C@H](C)CCC=C(C)C [Compound 5, (17R)-20-Isopropylidene-17-methyl-13, 14-didehydro-3-oxa-PGE1 methyl ester] | 9.17
CC(C)=CCC[C@@H](C)C[C@H](O)C#C[C@H]1[C@H](O)CC(=O)[C@@H]1CCCCOCC(=O)O [Compound 6, (17R)-20-Isopropylidene-17-methyl-13, 14-didehydro-3-oxa-PGE1] | 8.90
COC(=O)COCCCC[C@H]1C(=O)C[C@@H](O)[C@@H]1C#C[C@@H](O)CC1CCCCC1 [Control B, reference compound] | 6.87
CCCCC(C)[C@H](O)C#C[C@H]1[C@H](O)CC(=O)[C@@H]1CCCCSCC(=O)O (stereo partly drawn) [Control C, reference compound] | 6.04
CCCCC(C)(C)C(O)C#C[C@H]1[C@H](O)CC(=O)[C@@H]1CCCCOCC(=O)OC (stereo partly drawn) [Control D, reference compound] | 5.82
